Measured values taken from ChEMBL document CHEMBL1158075, “Brominated cyclodipeptides from the marine sponge Geodia barretti as selective 5-HT ligands” (J Nat Prod, 2006).

How the values were obtained:
[1] = target: T1, 5-hydroxytryptamine receptor 2C (Homo sapiens, UniProt P28335); assay: Displacement of [N-methyl-3H]LSD from human 5HT2C receptor expressed in HEK293 cells; format: cell-based
T1 sequence (P28335 whole entry): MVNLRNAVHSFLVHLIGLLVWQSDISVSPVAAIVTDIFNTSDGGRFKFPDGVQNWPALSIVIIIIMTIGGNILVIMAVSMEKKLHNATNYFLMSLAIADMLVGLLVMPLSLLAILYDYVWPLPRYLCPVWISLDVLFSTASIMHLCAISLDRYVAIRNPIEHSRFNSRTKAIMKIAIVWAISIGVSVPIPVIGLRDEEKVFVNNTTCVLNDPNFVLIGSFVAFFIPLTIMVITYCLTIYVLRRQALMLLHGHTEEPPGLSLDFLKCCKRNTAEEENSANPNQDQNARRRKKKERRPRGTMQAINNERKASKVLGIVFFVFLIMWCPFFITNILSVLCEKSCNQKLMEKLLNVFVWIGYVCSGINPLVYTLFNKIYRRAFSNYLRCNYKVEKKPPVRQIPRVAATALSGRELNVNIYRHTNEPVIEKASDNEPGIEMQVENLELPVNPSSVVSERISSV

[2] = target: T2, 5-hydroxytryptamine receptor 4 (Homo sapiens, UniProt Q13639); assay: Binding affinity to human 5HT4 receptor expressed in HEK293 cells by saturation binding method; format: cell-based
[3] = target: 5-hydroxytryptamine receptor 2A (Homo sapiens, UniProt P28223); assay: biochemical; format: cell-based, HEK293
[4] = target: T2, 5-hydroxytryptamine receptor 4; assay: Displacement of [N-methyl-3H]GR-113808 from human 5HT4 receptor expressed in HEK293 cells; format: cell-based

T2 sequence (Q13639 whole entry): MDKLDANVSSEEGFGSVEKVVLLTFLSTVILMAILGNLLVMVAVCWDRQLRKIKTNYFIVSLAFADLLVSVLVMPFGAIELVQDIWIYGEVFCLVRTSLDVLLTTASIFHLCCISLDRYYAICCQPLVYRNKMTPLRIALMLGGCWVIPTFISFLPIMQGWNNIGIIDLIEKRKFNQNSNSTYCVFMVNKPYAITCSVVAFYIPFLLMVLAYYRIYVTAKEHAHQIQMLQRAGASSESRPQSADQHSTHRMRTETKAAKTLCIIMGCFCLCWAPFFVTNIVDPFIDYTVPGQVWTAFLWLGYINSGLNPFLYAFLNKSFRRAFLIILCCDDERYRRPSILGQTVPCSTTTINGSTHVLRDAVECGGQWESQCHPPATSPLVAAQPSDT
Sequence of 5-hydroxytryptamine receptor 2A (P28223 whole entry): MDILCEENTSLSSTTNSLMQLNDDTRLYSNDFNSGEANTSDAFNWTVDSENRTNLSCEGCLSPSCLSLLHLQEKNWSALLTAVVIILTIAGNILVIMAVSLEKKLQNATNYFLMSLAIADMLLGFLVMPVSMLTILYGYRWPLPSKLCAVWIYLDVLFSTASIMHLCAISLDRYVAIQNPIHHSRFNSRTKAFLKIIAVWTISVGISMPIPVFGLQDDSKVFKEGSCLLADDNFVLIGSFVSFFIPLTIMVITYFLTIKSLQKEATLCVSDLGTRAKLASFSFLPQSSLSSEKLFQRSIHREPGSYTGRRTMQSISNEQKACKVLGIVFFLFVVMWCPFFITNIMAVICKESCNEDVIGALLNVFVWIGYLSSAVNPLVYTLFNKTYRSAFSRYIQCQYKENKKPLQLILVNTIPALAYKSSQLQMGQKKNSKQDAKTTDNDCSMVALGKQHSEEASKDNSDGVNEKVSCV

Compound	Ki [1] [nM]	Kd [2] [nM]	Ki [3] [nM]	Ki [4] [nM]
NC(N)=NCCC[C@@H]1NC(=O)[C@H](Cc2c[nH]c3cc(Br)ccc23)NC1=O	4630			
[3H]C([3H])([3H])n1cc(C(=O)OCC2CCN(CCNS(C)(=O)=O)CC2)c2ccccc21		15.8		
N=C(N)NCCC[C@@H]1NC(=O)/C(=C/c2c[nH]c3cc(Br)ccc23)NC1=O [BARETTIN]	340		1930	1910
CC[C@@H](CO)NC(=O)[C@@H]1C=C2c3cccc4c3c(cn4C)C[C@H]2N(C)C1 [METHYSERGIDE]	2.5			
CCCCCNC(=N)N/N=C/c1c[nH]c2ccc(OC)cc12 [TEGASEROD]				31
